Results published in US6774139B1, “Dual function microbicides” (Parker Hughes Institute, priority 2000, dated 2004).
Like-named read-outs stand apart in the source and are kept apart here. Values belong to the compound of their own block, whether it stands above or below them.

Assays:
[1] = molecular target: T1, purified recombinant HIV-1 RT (Human immunodeficiency virus type 1 group M subtype B, UniProt P03366); assay: cell-free Quan-T-RT RT inhibition assay (scintillation proximity); assay type: biochemical; settings: for IC50: purified recombinant HIV-1 RT, cell-free
T1 construct: purified recombinant HIV-1 RT
Procedure: Each of the thirty one thiourea compounds was tested for RT inhibitory activity against purified recombinant HIV-1 RT using the cell-free Quan-T-RT system (Amersham Corp., Arlington Heights, Ill.), which utilizes the scintillation proximity assay principle.

human sperm = assay: sperm immobilizing activity (SIA) by CASA; assay type: cell-based; settings: for EC50: read-out: EC50 [SIA]
Procedure: To evaluate the effect of each of the 31 thiourea compounds on human sperm motility and kinematics, highly motile fractions of sperm were prepared from donor semen (n=8) by discontinuous (90-45%) gradient centrifugation using Enhance Plus medium (Conception Technologies, San Diego, Calif.) and the “swim-up” method. The swim-up method was used after density gradient centrifugation, washing, and resuspension of sperm in BWW-3% BSA. Pooled swim-up fraction was washed once prior to spermicidal assay.
All donor semen specimens were obtained after informed consent and in compliance with the guidelines of the Parker Hughes Institute Institutional Review Board. […] The stock solutions of thioureas were prepared in DMSO (100 mM) and diluted in assay medium to yield the desired concentrations (up to 1000 μM). Corresponding volume of DMSO (either 0.5% or 1%) was added to control tubes. After 3 hours of incubation at 37° C., the percentage of motile sperm was evaluated by CASA [53, 62-64]. The percent motilities were compared with sham-treated control suspensions of motile sperm.
For CASA, 5-μl of each sperm suspension was loaded into a 20-μm Microcell slide (Conception Technologies) in a counting chamber at 37° C. At least 5-8 fields per slide were scanned for analysis using a Hamilton Thome Integrated Visual Optical System (IVOS), version 10 instrument (Hamilton Thome Research Inc., Danvers, Mass.). Each field was recorded for 30 seconds. The computer calibrations were set at 30 frames at a frame rate of 30/second.
The sperm kinematics parameters that were determined included numbers of motile (MOT) and progressively (PRG) motile sperm; curvilinear velocity (VCL; a measure of the total distance traveled by a given sperm during the acquisition divided by the time elapsed); average path velocity (VAP; the spatially averaged path that eliminates the wobble of the sperm head), straight line velocity (VSL; the straight-line distance from beginning to end of track divided by time taken), beat cross frequency (BCF; frequency of sperm head crossing sperm average path), the amplitude of lateral head displacement (ALH; the mean width of sperm head oscillation), and the derivatives, straightness (STR=VSL/VAP×100) and linearity (LIN=VSL/VCL×100; departure of sperm track from a straight line). Data from each individual cell track were recorded and analyzed. At least 200 motile sperm were analyzed for each aliquot sampled.

[2] = partition coefficient n-octanol/water (Pa); assay type: physicochemical; settings: UV absorption
Procedure: Partition of the test compounds between n-octanol and water as a measure of their lipophilicity was determined by taking the UV absorption of each compound in n-octanol, water-saturated n- octanol (1:1), and n-octanol-saturated water (1:1). The UV absorption maxima were determined by selecting a wavelength with the maximum absorption peak in the water-saturated octanol layer and the corresponding peak in the octanol-saturated water. Three absorption spectra were obtained for each compound. The partion coefficient (Pa) was calculated as the ratio of the compound concentration present in the lipid phase to the compound concentration present in the aqueous phase.

HIV-1 strain HTLVIIIB = assay: p24 antigen production in HIV-1 infected PBMCs; assay type: cell-based
Procedure: The HTLVIIIB strain of HIV-1 was propagated in CCRF-CEM cells and the virus stocks obtained from cell-free supernatants of infected cells were titered using MT-2 cells. Cell-free supernatants were harvested and frozen in 1 ml aliquots at −70° C.
Stock solutions (10 mM) of thiourea compounds were prepared in dimethylsulfoxide (DMSO). Cells were cultured for 7 days in 96-well microtiter plates (100 μl/well; 2×10^6 cells/ml, triplicate wells) in the presence and absence of various concentrations (0.001 μM to 100 μM) of the thioureas. Cells from non-infected controls were handled in the same way except the virus was omitted from the preparation. Aliquots of culture supernatants were removed from the wells on the 7th day after infection for p24 antigen as previously described. The p24 enzyme immunoassay was the unmodified kinetic assay available commercially (Coulter Corporation/Immunotech, Inc., Westbrook, Me.). The assay uses a murine monoclonal antibody (mAb) to the HIV core protein coated onto microwell strips to which the antigen present in the test culture supernatant sample binds. The plates were read on a ELISA reader (Molecular Devices, Sunnyvale, Calif.) at 650 nm and p24 levels, expressed as ng/ml, were calculated against known standards supplied by Coulter/Imrunotech, Inc. Percent viral inhibition was calculated by comparing the p24 values for the test substance-treated infected cells with the p24 values for untreated infected cells (i.e., virus controls). […]

[3] = motile human sperm, 3 hours at 37° C., CASA
[4] = Human immunodeficiency virus 1, PBMC, HIV-1 HTLVIIIB infected human PBMC, p24 antigen on 7th day, read-out: IC50 [p24]
[5] = Human immunodeficiency virus 1, PBMC, HIV-1 HTLVIIIB infected human PBMC, values in nM, read-out: IC50[p24]
[6] = Human immunodeficiency virus 1, PBMC, read-out: IC50 [p24]

SMILES: S=C(NCCN1CCCCC1)Nc1ccc(Br)cn1 [HI 172]
- IC50 ([1]; IC50 [rRT]): 5800 nM
- EC50 (human sperm; [3]): > 500 µM
- Pa, Partition coefficient [2]: 8.91
- IC50 (HIV-1 strain HTLVIIIB; [4]): < 1 nM
- IC50 (HIV-1 strain HTLVIIIB; [5]): < 1 nM

SMILES: S=C(NCCN1CCCC1)Nc1ccc(Br)cn1 [HI 230]
- IC50 ([1]; IC50 [rRT]): > 100000 nM
- EC50 (human sperm; [3]): > 500 µM
- Pa, Partition coefficient [2]: 7.91
- IC50 (HIV-1 strain HTLVIIIB; [4]): 1000 nM

SMILES: COc1ccc(CCNC(=S)Nc2ccc(Br)cn2)cc1OC [HI 232]
- IC50 ([1]; IC50 [rRT]): > 100000 nM
- EC50 (human sperm; [3]): > 500 µM
- Pa, Partition coefficient [2]: 22.7

SMILES: COc1ccc(OC)c(CCNC(=S)Nc2ccc(Br)cn2)c1 [HI 236]
- IC50 ([1]; IC50 [rRT]): 100 nM
- EC50 (human sperm; [3]): > 500 µM
- Pa, Partition coefficient [2]: 1.78
- IC50 (HIV-1 strain HTLVIIIB; [4]): < 1 nM
- IC50 (HIV-1 strain HTLVIIIB; [5]): < 1 nM

SMILES: COc1ccccc1CCNC(=S)Nc1ccc(Br)cn1 [HI 237]
- IC50 ([1]; IC50 [rRT]): 1000 nM
- EC50 (human sperm; [3]): > 500 µM
- Pa, Partition coefficient [2]: 3.79
- IC50 (HIV-1 strain HTLVIIIB; [4]): 10 nM

SMILES: COc1cccc(CCNC(=S)Nc2ccc(Br)cn2)c1 [HI 239]
- IC50 ([1]; IC50 [rRT]): 400 nM
- EC50 (human sperm; [3]): > 500 µM
- Pa, Partition coefficient [2]: 1.07
- IC50 (HIV-1 strain HTLVIIIB; [4]): 3 nM
- IC50 (HIV-1 strain HTLVIIIB; [5]): 1 to 10 nM

SMILES: Fc1cccc(CCNC(=S)Nc2ccc(Br)cn2)c1 [HI 241]
- IC50 ([1]; IC50 [rRT]): 700 nM
- EC50 (human sperm; [3]): > 500 µM
- IC50 (HIV-1 strain HTLVIIIB; [4]): < 1 nM
- IC50 (HIV-1 strain HTLVIIIB; [5]): < 1 nM

SMILES: Fc1ccc(CCNC(=S)Nc2ccc(Br)cn2)cc1 [HI 242]
- IC50 ([1]; IC50 [rRT]): 6400 nM
- EC50 (human sperm; [3]): > 500 µM
- Pa, Partition coefficient [2]: 10.7
- IC50 (HIV-1 strain HTLVIIIB; [4]): 9 nM
- IC50 (HIV-1 strain HTLVIIIB; [5]): 1 to 10 nM

SMILES: S=C(NCCc1ccc(Br)cc1)Nc1ccc(Br)cn1 [HI 243]
- IC50 ([1]; IC50 [rRT]): 900 nM
- EC50 (human sperm; [3]): > 500 µM
- Pa, Partition coefficient [2]: 4.16
- IC50 (HIV-1 strain HTLVIIIB; [4]): 70 nM

SMILES: Cc1ccc(CCNC(=S)Nc2ccc(Br)cn2)cc1 [HI 244]
- IC50 ([1]; IC50 [rRT]): 700 nM
- EC50 (human sperm; [3]): > 500 µM
- Pa, Partition coefficient [2]: 1.49
- IC50 (HIV-1 strain HTLVIIIB; [4]): 30 nM

SMILES: S=C(NCCc1cccc(Cl)c1)Nc1ccc(Br)cn1 [HI 254]
- IC50 ([1]; IC50 [rRT]): 3100 nM
- EC50 (human sperm; [3]): > 500 µM
- Pa, Partition coefficient [2]: 6.20
- IC50 (HIV-1 strain HTLVIIIB; [4]): 10 nM

SMILES: S=C(NCCc1ccc(Cl)cc1)Nc1ccc(Br)cn1 [HI 255]
- IC50 ([1]; IC50 [rRT]): 400 to 6400 nM
- EC50 (human sperm; [3]): 160 µM
- Pa, Partition coefficient [2]: 2.23
- IC50 (HIV-1 strain HTLVIIIB; [4]): 1 nM
- IC50 (HIV-1 strain HTLVIIIB; [5]): 1 to 10 nM

SMILES: Oc1ccc(CCNC(=S)Nc2ccc(Br)cn2)cc1 [HI 256, N-[2-(4-hydroxyphenethyl)]-N′-[2-(5-bromopyridyl)]thiourea]
- EC50 (human sperm; [3]): 233 ± 68 µM
- Pa, Partition coefficient [2]: 2.93
- IC50 (HIV-1 strain HTLVIIIB; [6]): 3060 nM

SMILES: S=C(NCCN1CCNCC1)Nc1ccc(Br)cn1 [HI 258]
- IC50 ([1]; IC50 [rRT]): > 100000 nM
- EC50 (human sperm; [3]): > 500 µM
- Pa, Partition coefficient [2]: 5.92
- IC50 (HIV-1 strain HTLVIIIB; [4]): 2 nM
- IC50 (HIV-1 strain HTLVIIIB; [5]): 2 nM

SMILES: S=C(NCCc1ccccc1)Nc1ccc(Br)cn1 [HI 275]
- IC50 ([1]; IC50 [rRT]): 1250 nM
- EC50 (human sperm; [3]): 361 ± 31 µM
- Pa, Partition coefficient [2]: 3.50
- IC50 (HIV-1 strain HTLVIIIB; [4]): 4 nM
- IC50 (HIV-1 strain HTLVIIIB; [5]): 4 nM

SMILES: FC(F)(F)c1ccc(NC(=S)NCCc2ccccc2)nc1 [HI 308, N-[2-(phenethyl)]-N′-[2-(5-trifluoromethylpyridinyl)]-thiourea]
- anti-HIV activity (in words) [1]: inactive
- IC50 ([1]; IC50 [rRT]): > 100000 nM
- EC50 (human sperm; [3]): > 500 µM

SMILES: FC(F)(F)c1ccc(NC(=S)NCCc2ccccn2)nc1 [HI 309]
- IC50 ([1]; IC50 [rRT]): 13900 nM
- EC50 (human sperm; [3]): > 500 µM
- Pa, Partition coefficient [2]: 3.81

SMILES: COc1ccc(OC)c(CCNC(=S)Nc2ccc(C(F)(F)F)cn2)c1 [HI 310, N-[2-(5-dimethoxyphenethyl)]-N′-[2-(5-trifluoromethylpyridinyl)]-thiourea]
- IC50 ([1]; read-out: IC50 [rRT]): 2000 nM
- EC50 (human sperm; [3]): 276 ± 22 µM
- Pa, Partition coefficient [2]: 1.00
- IC50 (HIV-1 strain HTLVIIIB; HIV-1 HTLVIIIB infected human PBMC, p24 antigen on 7th day, read-out: IC50 [p24]): 80 nM

SMILES: Fc1ccccc1CCNC(=S)Nc1ccc(C(F)(F)F)cn1 [HI 311]
- IC50 ([1]; IC50 [rRT]): 600 nM
- EC50 (human sperm; [3]): > 500 µM
- Pa, Partition coefficient [2]: 5.13
- IC50 (HIV-1 strain HTLVIIIB; [4]): 90 nM

SMILES: FC(F)(F)c1ccc(NC(=S)NCCN2CCCCC2)nc1 [HI 344]
- IC50 ([1]; IC50 [rRT]): > 100000 nM
- EC50 (human sperm; [3]): 131 µM
- Pa, Partition coefficient [2]: 10.27

SMILES: Fc1cccc(CCNC(=S)Nc2ccc(Br)cn2)c1 [HI 345]
- IC50 ([1]; read-out: IC50 [rRT]): 700 nM
- EC50 (human sperm; [3]): > 500 µM
- Pa, Partition coefficient [2]: 1.51

SMILES: FC(F)(F)c1ccc(NC(=S)NCCC2=CCCCC2)nc1 [HI 347, N-[2-(5-trifluoromethylpyridinyl)]-N′-[2-(1-cyclohexenyl)ethyl]-thiourea]
- effective 100% inhibitory concentration (EC100), sperm motility (human sperm; FIG. 1, CASA): 0.25 mM
- EC50 (human sperm; [3]): 131 ± 4 µM
- SIA, fold less active than halo functionalized derivatives (human sperm; versus PHI-346 and PHI-445): two to three-fold less active
- Pa, Partition coefficient [2]: 11.5
- IC50 (HIV-1 strain HTLVIIIB; [6]): 79 nM
- anti-HIV activity, fold less active than halo functionalized derivatives (HIV-1 strain HTLVIIIB; versus PHI-346 and PHI-445): 26 fold

SMILES: S=C(NCCc1cccs1)Nc1ccc(Br)cn1 [HI 443]
- IC50 ([1]; IC50 [rRT]): 5300 nM
- EC50 (human sperm; [3]): > 500 µM
- IC50 (HIV-1 strain HTLVIIIB; [6]): 30 nM

SMILES: CC1(C)C2CCC(CNC(=S)Nc3ccc(Br)cn3)C1C2 (stereo not drawn) [HI 444]
- anti-HIV activity (in words) [1]: loss of anti-HIV activity
- IC50 ([1]; read-out: IC50 [rRT]): > 100000 nM
- EC50 (human sperm; [3]): > 500 µM
- Pa, Partition coefficient [2]: 2.1

SMILES: S=C(NCCC1=CCCCC1)Nc1ccccn1 [HI-541]
- IC50 ([1]; IC50 [rRT]): 5300 nM
- EC50 (human sperm; [3]): > 500 µM
- IC50 (HIV-1 strain HTLVIIIB; [4]): 10 nM

- EC50 (human sperm; Homo sapiens, Sperm, 3 h): > 500 µM
- Pa, Partition coefficient [2]: 5.3
- IC50 (HIV-1 strain HTLVIIIB; [6]): 7 nM
SMILES: S=C(NCCc1ccccn1)Nc1ccc(Br)cn1 [Trovirdine, reference compound]
- SIA / sperm motility (in words) (human sperm): lacked SIA
